Laboratory results reported in patent US12616740B2, “Methods of using a GIP/GLP1 co-agonist for therapy” (ELI LILLY AND COMPANY, priority 2018, dated 2026).

How the values were obtained:
[1] = tested on: patients with T2DM who have inadequate glycemic control; test: NCT03131687: mean fasting glucose at Week 26; assay type: in vivo, human; set-up: Mean change from baseline, fasting glucose: unit not given here
Procedure: Clinical Study (NCT03131687) Supporting Maintenance Dose Embodiments A 6-month (26-week) Phase 2 double-blind clinical study is designed to evaluate the safety, efficacy, and PK/PD of 4 dose levels (1 mg, 5 mg, 10 mg and 15 mg respectively) of tirzepatide once weekly by subcutaneous injection compared with dulaglutide 1.5 mg. once weekly (QW) and placebo QW in patients with T2DM who have inadequate glycemic control with diet and exercise with or without a stable dose of metformin. Tirzepatide dose is up-titrated to the maintenance dose using the following weekly dose increments:
The study also has a 4-week follow up period. In addition to safety and efficacy for treating T2DM, efficacy endpoints include the effect of tirzepatide on HbA1c, FBG, body weight, lipids, and waist circumference compared with placebo and with dulaglutide 1.5 mg. The study also evaluates the effect of tirzepatide on GI tolerability, hypoglycemia, hypersensitivity reactions, and pancreatic safety, as well as the development of treatment-emergent anti-drug antibodies. Model-based dose response analyses are performed to predict potential for significant HbA1c lowering and weight loss in longer studies. Statistical Analyses: Efficacy: The primary efficacy outcome of HbA1c change from baseline to the 26-week endpoint is analyzed using a Bayesian dose-response model. Analyses are performed on the intention to treat population (mITT) analysis set. Supportive analysis of the primary efficacy outcome for the mITT dataset are the model for post-baseline measures (MMRM) with body mass index (BMI) (<30 kg/m^2, ≥30 kg/m^2), metformin use, treatment, visit, and treatment-by-visit interaction as fixed effects, baseline HbA1c as a covariate, and patient as a random effect. The mean weight change from baseline at 12 and 26 weeks, along with the mean change from baseline of HbA1c at 12 weeks, is analyzed using similar dose-response models as the primary analyses. The percentages of patients with ≥5% or ≥10% body weight loss, reaching the HbA1c target of ≤6.5% or ≤7.0% at 26 weeks, or requiring rescue therapy are analyzed using logistic regression with fixed effects of treatment and strata, and baseline as a covariate. The changes from baseline in FBG (fasting blood glucose), SMBG (self-monitored blood glucose) levels, waist circumference, and mean percentage change in lipids from baseline to 12 and 26 weeks are analyzed using a similar MMRM to the one used for the primary analyses. Table Abbreviations: Dula 1.5 mg=dulaglutide 1.5 mg once weekly; LY means tirzepatide, and LY 1 mg=tirzepatide 1 mg once weekly; LY 5 mg=5 mg once weekly; LY 10 mg=escalation dose group tirzepatide once weekly with highest dose of 10 mg; LY 15 mg=escalation dose group of tirzepatide once weekly with highest dose 15 mg; LOCF=last observation-carried-forward; N=number of patients; pbo=placebo; Week 26=mITT on-treatment data at Week 26 excluding data after study drug discontinuation or rescue drug initiation; mITT=modified intent-to-treat; SD=standard deviation. For Table 4, n=number of patients in the population with baseline and post-baseline value at the specified time point. For Table 6, LY10 mg=escalation dose group tirzepatide, once weekly with highest dose of 10 mg; escalation dose: (5 mg weeks 0 and 1), LY15 mg=escalation dose group tirzepatide, once weekly with highest dose of 15 mg; escalation dose: (5 mg weeks 0 and 1; 10 mg weeks 2 to 5); N=number of patients in specified group, m=number of patients who experienced new event during interval, FolUp=follow up, T/Wk=Time range, (week) and %=means percent patients spending at least some time in treatment group who experienced new event during interval. For Table 7, n is the number of patients with events meeting the criteria; N is number of patients in the population; % is percent of patients in treatment group experiencing the event.

[2] = tested on: patients with type 2 diabetes who have inadequate glycemic control; test: Phase 2 clinical study NCT03311724 (12 weeks, escalation schemes): patients reaching HbA1c target; assay type: in vivo, human
From the text: This is a 12-week treatment with a 1 week screening (Visit 1) followed by a 1 week lead-in (Visit 2), then 12 weeks of treatment (Visits 3-10, including telephone visits), then followed by 4-week safety follow-up. It is a Phase 2 study designed to examine the efficacy and tolerability of subcutaneously once-weekly tirzepatide compared with placebo in patients with type 2 diabetes who have inadequate glycemic control with diet and exercise alone or with a stable dose of metformin. The study was designed per below and conducted to refine the escalation scheme.

[3] = LY1 mg = tirzepatide 1 mg once weekly, N 44
[4] = LY5 mg = tirzepatide 5 mg once weekly, N 48
[5] = LY10 mg = tirzepatide once weekly, highest dose 10 mg, N 44
[6] = LY15 mg = tirzepatide once weekly, highest dose 15 mg, N 35
[7] = LY 12 mg Group 3 (tirzepatide 4 mg × 4, 8 mg × 4, 12 mg × 4 once weekly), LOCF Week 12 (N = 28)
[8] = LY 12 mg Group 3 (tirzepatide 4 mg × 4, 8 mg × 4, 12 mg × 4 once weekly), Week 12 mITT on-treatment (N = 27)
[9] = LY 15 mg-Group 1 (tirzepatide 2.5 mg × 2, 5 mg × 2, 10 mg × 4, 15 mg × 4 once weekly), LOCF Week 12 (N = 28)
[10] = LY 15 mg-Group 1 (tirzepatide 2.5 mg × 2, 5 mg × 2, 10 mg × 4, 15 mg × 4 once weekly), Week 12 mITT on-treatment (N = 23)
[11] = LY 15 mg-Group 2 (tirzepatide 2.5 mg × 4, 7.5 mg × 4, 15 mg × 4 once weekly), LOCF Week 12 (N = 27)
[12] = LY 15 mg-Group 2 (tirzepatide 2.5 mg × 4, 7.5 mg × 4, 15 mg × 4 once weekly), Week 12 mITT on-treatment (N = 26)

tirzepatide [LY]
Mean change from baseline, fasting glucose [1, 3]: −6.2 | Mean glucose value (fasting) [1, 3]: 154.9 mg/dL | Mean change from baseline, fasting glucose [1, 4]: −46.7 | Mean glucose value (fasting) [1, 4]: 126.5 mg/dL | Mean change from baseline, fasting glucose [1, 5]: −66.9 | Mean glucose value (fasting) [1, 5]: 104.8 mg/dL | Mean change from baseline, fasting glucose [1, 6]: −56.8 | Mean glucose value (fasting) [1, 6]: 110.3 mg/dL | fasting serum glucose (in words) ([1]; tirzepatide 5 mg, 10 mg, and 15 mg doses): significantly decrease fasting serum glucose compared with placebo and dulaglutide 1.5 mg | placebo-adjusted changes from baseline in HbA1c (in words) ([2]; 12-mg and 15-mg tirzepatide doses, after 12 weeks of treatment, including an 8-week escalation period): statistically significant and clinically relevant | % of Patients Reaching HbA1c Target <5.7% [2, 7]: 3.6% | % of Patients Reaching HbA1c Target <7% [2, 7]: 71.4% | odds ratio vs. placebo, Patients Reaching HbA1c Target <5.7% [2, 7]: 2.8 | odds ratio vs. placebo, Patients Reaching HbA1c Target <7% [2, 7]: 16.1 | % of Patients Reaching HbA1c Target <5.7% [2, 8]: 3.7% | % of Patients Reaching HbA1c Target <7% [2, 8]: 74.1% | odds ratio vs. placebo, Patients Reaching HbA1c Target <5.7% [2, 8]: 2.5 | odds ratio vs. placebo, Patients Reaching HbA1c Target <7% [2, 8]: 56.5 | % of Patients Reaching HbA1c Target <5.7% [2, 9]: 3.6% | % of Patients Reaching HbA1c Target <7% [2, 9]: 78.6% | odds ratio vs. placebo, Patients Reaching HbA1c Target <5.7% [2, 9]: 2.9 | odds ratio vs. placebo, Patients Reaching HbA1c Target <7% [2, 9]: 25.1 | % of Patients Reaching HbA1c Target <5.7% [2, 10]: 4.3% | % of Patients Reaching HbA1c Target <7% [2, 10]: 87.0% | odds ratio vs. placebo, Patients Reaching HbA1c Target <5.7% [2, 10]: 3.1 | odds ratio vs. placebo, Patients Reaching HbA1c Target <7% [2, 10]: 183.5 | % of Patients Reaching HbA1c Target <5.7% [2, 11]: 7.4% | % of Patients Reaching HbA1c Target <7% [2, 11]: 85.2% | odds ratio vs. placebo, Patients Reaching HbA1c Target <5.7% [2, 11]: 5.0 | odds ratio vs. placebo, Patients Reaching HbA1c Target <7% [2, 11]: 37.9 | % of Patients Reaching HbA1c Target <5.7% [2, 12]: 7.7% | % of Patients Reaching HbA1c Target <7% [2, 12]: 84.6% | odds ratio vs. placebo, Patients Reaching HbA1c Target <5.7% [2, 12]: 4.6 | odds ratio vs. placebo, Patients Reaching HbA1c Target <7% [2, 12]: 157.5
